Reference: patent US20150164907A1, “COMPOSITIONS AND METHODS FOR TREATING DISEASE” (ANGION BIOMEDICA CORP., priority 2013, published 2015)
Like-named read-outs stand apart in the source and are kept apart here.

Test system: SK-BR-3 breast cancer cells
Assay: Proliferation of SK-BR-3 breast cancer cells, checkerboard design, Cell Titer Glo after 7 days
Assay type: cell-based
Details: for IC50: Homo sapiens
Procedure: The effect of ATRA in combination with GDC-0941 or NVP-BEZ235 on the proliferation of SK-BR-3 breast cancer cells was evaluated. […] To test the combination of ATRA and PI3Km/TOR inhibitors, cells were plated in a 96-well plate and treated with compounds in a “checkerboard” design. After 7 days the cell proliferation was determined using the Cell Titer Glo reagent (Promega). […] The bliss additivity model predicts the shape of the curve and magnitude of growth inhibition if the effects of two compounds is additive.
Another method to determine the interaction between two compounds is the combination index (CI) method, which can be calculated by the computer program Calcusyn.

[1] = SK-BR-3, 168 h, in the absence of ATRA, 7 days, read-out: estimated IC50, proliferation of SK-BR-3 growth
[2] = SK-BR-3, 168 h, in the presence of 10 nM ATRA, 7 days, read-out: IC50, proliferation of SK-BR-3 cells

| IC50 (SK-BR-3, ATRA alone, read-out: estimated IC50, proliferation of SK-BR-3 cells) [nM] | IC50 [1] [nM] | IC50 [2] [nM] | SMILES | inhibition of cell proliferation by ATRA by itself (10 nM ATRA alone) |
| --- | --- | --- | --- | --- |
| 40 | – | – | CC1=C(/C=C/C(C)=C/C=C/C(C)=C/C(=O)O)C(C)(C)CCC1 [ATRA, all-trans retinoic acid] | only mildly inhibited cell proliferation |
| – | 126 | 35 | CS(=O)(=O)N1CCN(Cc2cc3nc(-c4cccc5[nH]ncc45)nc(N4CCOCC4)c3s2)CC1 [GDC-0941, 2-(1H-indazol-4-yl)-6-(4-methanesulfonyl-piperazin-1-ylmethyl)-4-morpholin-4-yl-thieno[3,2-d]pyrimidine] | – |
| – | 145 | 57 | Cn1c(=O)n(-c2ccc(C(C)(C)C#N)cc2)c2c3cc(-c4cnc5ccccc5c4)ccc3ncc21 [NVP-BEZ235] | – |
